From patent US20240067693A1, “POLYPEPTIDES AND USES THEREOF” (MEDIMMUNE LIMITED, priority 2020, published 2024)
Numbered stars: 1 amine (or outer) side, 2 acyl side, 3 side chain; on linkers, the order of the positions; unused ones are H or OH. Bridge positions count the residues as written; N and C are the ends. Square brackets hold non-standard residues; d marks the D form. Side chains are listed from the residue outwards. Peptide text beside a SMILES is read from it. * marks the point of attachment. C18 diacid = O=C(O)CCCCCCCCCCCCCCCCC(=O)*; γGlu = O=C(O)[C@H](CCC(=O)[*:2])N[*:1]; Aib = CC(C)(N)C(=O)O

Experiments:
[1] = molecular target: T1, human amylin receptor (calcitonin receptor co-expressed with receptor activity modifying protein, RAMP3) (hAMYR3) (Homo sapiens, UniProt O60896+P30988); assay: cAMP production in 1321N1 cells with stable recombinant expression of human amylin receptor (hAMYR3); assay type: cell-based; settings: for Ratio (selectivity hAMYR vs hCTR, ratio of EC50 values at the two receptors): EC50 hCTR / EC50 hAMYR3; for EC50: cAMP, 1321N1 cells, assay buffer with 0.1% BSA, read-out: EC50 (pM) hAMYR3
T1 construct: expressed in transfected cells
T1 sequence (P30988 25-474): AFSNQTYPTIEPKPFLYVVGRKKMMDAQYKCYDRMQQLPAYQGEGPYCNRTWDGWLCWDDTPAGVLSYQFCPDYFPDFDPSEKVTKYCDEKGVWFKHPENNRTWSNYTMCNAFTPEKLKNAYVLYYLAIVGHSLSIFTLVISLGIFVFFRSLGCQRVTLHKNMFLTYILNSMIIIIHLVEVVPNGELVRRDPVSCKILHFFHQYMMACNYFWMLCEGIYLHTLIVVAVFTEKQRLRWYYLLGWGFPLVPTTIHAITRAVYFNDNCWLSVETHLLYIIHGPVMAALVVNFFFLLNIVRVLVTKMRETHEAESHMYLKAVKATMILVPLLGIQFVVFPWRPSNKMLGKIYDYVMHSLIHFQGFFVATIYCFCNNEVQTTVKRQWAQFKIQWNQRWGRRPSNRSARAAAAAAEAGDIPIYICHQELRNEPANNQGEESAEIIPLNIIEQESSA
T1 sequence (O60896 24-148 partner): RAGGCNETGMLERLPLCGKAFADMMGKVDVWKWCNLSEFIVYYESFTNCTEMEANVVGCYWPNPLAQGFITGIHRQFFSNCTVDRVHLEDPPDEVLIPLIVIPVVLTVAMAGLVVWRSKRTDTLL
Outline: (§1)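 Thawed cells in HBSS/0.1% BSA/25 mM HEPES pH 7.4 with 0.5 mM IBMX were incubated with peptides 30 min at room temperature; cAMP read by HTRF. EC50 from 4-parameter fit of % activation relative to maximal amylin or calcitonin effect.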

[2] = in vivo; settings: male, Sprague-Dawley, rat, 20 nmol/kg
[3] = molecular target: T2, rat amylin receptor (calcitonin receptor co-expressed with receptor activity modifying protein, RAMP3) (Rat AMYR3) (Rattus norvegicus, UniProt P32214+Q9JJ73); assay: cAMP production in HEK cells with stable recombinant expression of rat amylin receptor (Rat AMYR3); assay type: cell-based; settings: assay buffer with 0.1% BSA
T2 construct: expressed in transfected cells
T2 sequence (P32214 25-516): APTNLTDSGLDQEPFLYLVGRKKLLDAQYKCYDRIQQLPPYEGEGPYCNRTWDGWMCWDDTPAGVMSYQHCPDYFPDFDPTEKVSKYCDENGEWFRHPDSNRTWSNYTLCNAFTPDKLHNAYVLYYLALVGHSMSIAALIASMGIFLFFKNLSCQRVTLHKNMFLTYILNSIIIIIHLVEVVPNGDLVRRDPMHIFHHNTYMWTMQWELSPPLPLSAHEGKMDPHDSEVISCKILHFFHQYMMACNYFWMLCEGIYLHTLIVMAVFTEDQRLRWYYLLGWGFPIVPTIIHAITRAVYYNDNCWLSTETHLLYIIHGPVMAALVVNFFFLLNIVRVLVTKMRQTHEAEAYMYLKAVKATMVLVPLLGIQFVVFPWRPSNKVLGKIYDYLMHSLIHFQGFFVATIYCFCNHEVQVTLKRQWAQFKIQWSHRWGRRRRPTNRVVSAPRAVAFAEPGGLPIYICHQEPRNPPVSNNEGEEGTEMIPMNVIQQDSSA
T2 sequence (Q9JJ73 23-147 partner): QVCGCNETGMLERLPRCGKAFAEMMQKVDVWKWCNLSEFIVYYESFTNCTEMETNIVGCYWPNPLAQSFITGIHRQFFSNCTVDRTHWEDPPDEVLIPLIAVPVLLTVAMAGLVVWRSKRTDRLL
Procedure: (§2) The functional activities of lipidated pramlintide analogue peptides, such as cAMP production, were tested in 1321N1 cell line with stable recombinant expression of human calcitonin receptor (hCTR) or human amylin receptor (calcitonin receptor co-expressed with receptor activity modifying protein, RAMP3) (hAMYR3) or HEK cells with stable recombinant expression of rat calcitonin receptor (rat CTR) or rat amylin receptor (calcitonin receptor co-expressed with receptor activity modifying protein, RAMP3) (Rat AMYR3).
(§3) Cryopreserved cell stock was thawed rapidly in a water-bath, suspended in assay buffer (0.1% BSA (Sigma # A3059) in HBSS (Sigma # H8264) with 25 mM HEPES, pH 7.4 and containing 0.5 mM IB MX (Sigma# 17018)) and spun at 240×g for 5 minutes. Cells were re-suspended in assay buffer at a batch-dependent optimized concentration (e.g. hCTR cells at 0.125×10^5 cells/mL, hAMYR3 cells at 0.125×10^5 cells/mL, rat CTR cells at 1x10^5 cells/mL, rat AMYR3 at 2×10^5 cells/mL).
(§4) The test peptide stock was prepared in DMSO and diluted in assay buffer to reach stated concentrations and transferred in duplicates into a 384-black shallow well microtitre assay plate (Corning # 3676). Cells were added to the assay plate, incubated at room temperature for 30 minutes and the cAMP level measured using cAMP dynamic 2 HTRF kit (Cisbio, Cat # 62AM4PEJ), following the two step protocol as per manufacturer's recommendations. The plates were read on an Envision (Perkin Elmer) using excitation wavelength of 320 nm and emission wavelengths of 620nm & 665 nm.
(§5) Data was transformed to % Delta F as described in the manufacturer's guidelines and analyzed as percent activation of maximal amylin or calcitonin effect by 4-parameter logistic fit to determine EC50 values. The selectivity of a peptide to hAMYR vs hCTR is defined as a ratio of EC50 values at the two receptors.

[4] = system: lean rats; assay: Rat acute food intake study; assay type: in vivo; settings: lean male Sprague Dawley rats, 20 nmol/kg subcutaneously
Procedure: Male Sprague Dawley rats were obtained from Taconic Denmark, ApS at approximately 7 weeks of age. Rats were implanted with a microchip for identification, housed 4/cage with enrichment, free access to food and water, and allowed one week acclimatisation while non-invasive characterization was performed. Rats were on a 12:12 light:dark cycle that switches at 1pm:1am. Food intake was monitored via the HM2 system (Lafayette Instrument) that allows for monitoring in a home cage. As each rat enters an access tunnel to feed, an IR beam is broken, and the implanted microchip is read. Resulting changes to food weight is then assigned to the specific animal. Social order has shown no impact to overall feeding patterns and amounts.
Rats were sorted into groups based on Day -1 body weight and 24-hour accumulated food intake (n=7 per group). On Day 0 rats were weighed, then fasted for 6 hours. Thirty (30) minutes prior to the reintroduction of food, rats were dosed subcutaneously (5 mL/kg) with 20 nmol/kg of test compound or 60 nmol/kg peptide 1 (pramlintide) diluted in an appropriate vehicle, after which food was returned, and lights went out. Automated food intake was monitored for the following 3 days, and rats were weighed once per day.
Food intake per rat was batched into 1-hour intervals and integrated into Gubra's GubraView data management system. Discrete food intake data was exported into MS Excel from which cumulative food intake data was generated. Cumulative food intake data was then transposed into GraphPad Prism (v8.0.1) for analysis of dark period feeding

[5] = molecular target: T3, human calcitonin receptor (hCTR) (Homo sapiens, UniProt P30988); assay: cAMP production in 1321N1 cells with stable recombinant expression of human calcitonin receptor (hCTR); assay type: cell-based; settings: cAMP, 1321N1 cells, assay buffer with 0.1% BSA; read-out: EC50 (pM) hCTR
T3 construct: expressed in transfected cells
T3 sequence (P30988 25-474): T1 sequence (P30988 25-474)
Outline: as §1

[6] = molecular target: T4, rat calcitonin receptor (rat CTR) (Rattus norvegicus, UniProt P32214); assay: cAMP production in HEK cells with stable recombinant expression of rat calcitonin receptor (rat CTR); assay type: cell-based; settings: assay buffer with 0.1% BSA
T4 construct: expressed in transfected cells
T4 sequence (P32214 25-516): T2 sequence (P32214 25-516)
Procedure: as §2, §3, §4, §5

SMILES	Ratio (selectivity hAMYR vs hCTR, ratio of EC50 values at the two receptors) [1]	EC50 [1]	half-life ([2]; iv)	half-life ([2]; sc)	EC50 [3]	Cummulative food intake (% vehicle treated intake) At 12 h [4]	Cummulative food intake (% vehicle treated intake) At 24 h [4]	Cummulative food intake (% vehicle treated intake) At 48 h [4]	EC50 [5]	EC50 [6]
CC[C@H](C)[C@H](NC(=O)[C@@H]1CCCN1C(=O)CNC(=O)[C@H](Cc1ccccc1)NC(=O)[C@H](CC(N)=O)NC(=O)C(C)(C)NC(=O)[C@H](CO)NC(=O)[C@H](CO)NC(=O)[C@H](Cc1c[nH]cn1)NC(=O)[C@@H](NC(=O)[C@H](CC(C)C)NC(=O)[C@H](Cc1ccccc1)NC(=O)[C@H](CC(N)=O)NC(=O)[C@H](C)NC(=O)[C@H](CC(C)C)NC(=O)[C@H](CCCNC(=N)N)NC(=O)[C@H](CCC(N)=O)NC(=O)[C@@H](NC(=O)[C@H](C)NC(=O)[C@@H]1CSSC[C@H](NC(=O)[C@H](CCCCN)NC(=O)[C@@H](N)CCCCNC(=O)CC[C@H](NC(=O)CCCCCCCCCCCCCCCCC(=O)O)C(=O)O)C(=O)N[C@@H](CC(N)=O)C(=O)N[C@@H]([C@@H](C)O)C(=O)N[C@@H](C)C(=O)N[C@@H]([C@@H](C)O)C(=O)N1)[C@@H](C)O)C(C)C)C(=O)N[C@@H](CC(C)C)C(=O)N1CCC[C@H]1C(=O)N1CCC[C@H]1C(=O)N[C@H](C(=O)N[C@@H](CC(N)=O)C(=O)N[C@H](C(=O)NCC(=O)N[C@@H](CO)C(=O)N[C@@H](CC(N)=O)C(=O)N[C@H](C(=O)N[C@@H](Cc1ccc(O)cc1)C(N)=O)[C@@H](C)O)C(C)C)[C@@H](C)O [Peptide 35, K(γE-C18diacid)K[CNTATC]ATQRLANFLVHSS(Aib)NFGPILPPTNVGSNTY-amide] (H-K([γGlu-C18 diacid])KCNTATCATQRLANFLVHSS[Aib]NFGPILPPTNVGSNTY-NH2; disulfide 3-8; N-terminus assumed)	55	259 pM	5.4 h	8.1 h	5.9 pM	49.8 % vehicle treated intake	44.8 % vehicle treated intake	72 % vehicle treated intake	14200 pM	514 pM
CC[C@H](C)[C@H](NC(=O)[C@@H]1CCCN1C(=O)CNC(=O)[C@H](Cc1ccccc1)NC(=O)[C@H](CC(N)=O)NC(=O)C(C)(C)NC(=O)[C@H](CO)NC(=O)[C@H](CO)NC(=O)[C@H](Cc1c[nH]cn1)NC(=O)[C@@H](NC(=O)[C@H](CC(C)C)NC(=O)[C@H](Cc1ccccc1)NC(=O)[C@H](CC(N)=O)NC(=O)[C@H](C)NC(=O)[C@H](CC(C)C)NC(=O)[C@H](CCCNC(=N)N)NC(=O)[C@H](CCC(N)=O)NC(=O)[C@@H](NC(=O)[C@H](C)NC(=O)[C@@H]1CSSC[C@H](NC(=O)[C@H](CCCCN)NC(=O)[C@@H](N)CCCCNC(=O)CC[C@H](NC(=O)CCCCCCCCCCCCCCCCC(=O)O)C(=O)O)C(=O)N[C@@H](CC(N)=O)C(=O)N[C@@H]([C@@H](C)O)C(=O)N[C@@H](C)C(=O)N[C@@H]([C@@H](C)O)C(=O)N1)[C@@H](C)O)C(C)C)C(=O)N[C@@H](CC(C)C)C(=O)N1CCC[C@H]1C(=O)N1CCC[C@H]1C(=O)N[C@H](C(=O)N[C@@H](CCC(=O)O)C(=O)N[C@H](C(=O)NCC(=O)N[C@@H](CO)C(=O)N[C@@H](CC(N)=O)C(=O)N[C@H](C(=O)N[C@@H](Cc1ccc(O)cc1)C(N)=O)[C@@H](C)O)C(C)C)[C@@H](C)O [Peptide 41, K(γE-C18diacid)K[CNTATC]ATQRLANFLVHSS(Aib)NFGPILPPTEVGSNTY-amide] (H-K([γGlu-C18 diacid])KCNTATCATQRLANFLVHSS[Aib]NFGPILPPTEVGSNTY-NH2; disulfide 3-8; N-terminus assumed)	7	178 pM	8.3 h	10.1 h	8.2 pM	44.6 % vehicle treated intake	38.5 % vehicle treated intake	58.8 % vehicle treated intake	1180 pM	925 pM
